The values that follow come from patent US9242996B2 (Novartis AG, priority 2013, dated 2016).

The target of one experiment is ERK2 (Homo sapiens (Human), UniProt P28482). The experiment is described as follows: ERK2 Alphascreen. Format: biochemical.
For another experiment, the target named is activated ERK2 (Homo sapiens (Human), UniProt P28482). The experiment is described as follows: Activated ERK2 kinase assay, ERK2 New conditions (AlphaScreen, ERKtide phosphorylation). Format: biochemical. The following applies: 0.25 nM ERK2, 200 nM ERKtide peptide, 35 μM ATP, 30 min preincubation. The gist of the method:
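Read-out is AlphaScreen with anti-phospho-EGFR (Thr669) antibody after EDTA quench and overnight dark incubation. Reaction: 0.25 nM ERK2, 30 min compound preincubation, then 200 nM ERKtide plus 35 µM ATP for 2–3 h at ambient temperature, pH 7.5. IC50 by four-parameter fit.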
In general terms: Alpha assays give light when donor and acceptor beads are brought close together.

Chain of ERK2 (P28482 whole entry, species assumed): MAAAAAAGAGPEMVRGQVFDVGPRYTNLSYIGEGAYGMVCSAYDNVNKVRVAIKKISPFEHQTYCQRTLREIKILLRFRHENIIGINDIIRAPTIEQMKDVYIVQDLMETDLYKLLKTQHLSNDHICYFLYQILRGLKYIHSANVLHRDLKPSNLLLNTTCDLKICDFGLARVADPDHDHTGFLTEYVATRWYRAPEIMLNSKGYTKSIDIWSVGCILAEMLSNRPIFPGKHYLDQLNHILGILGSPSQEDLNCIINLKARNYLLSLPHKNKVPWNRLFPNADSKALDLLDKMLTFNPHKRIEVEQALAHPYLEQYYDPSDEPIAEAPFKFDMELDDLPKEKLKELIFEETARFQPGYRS
Chain of activated ERK2 (P28482 whole entry): as the sequence (P28482 whole entry, species assumed) above

With `CN(Cc1ccccc1)C(=O)c1ccc(-c2nc(C3CCOCC3)cnc2N)cc1F` [Example 52, 4-(3-amino-6-(tetrahydro-2H-pyran-4-yl)pyrazin-2-yl)-N-benzyl-2-fluoro-N-methylbenzamide], the IC50 (commonly the point on the concentration scale where inhibition reaches its midpoint) on ERK2 stood at 0.0312 µM; against activated ERK2, 0.0303 µM.

On to `Nc1ncc(C2CCOCC2)cc1-c1ccc(C(=O)N[C@H](CO)c2ccccc2)cc1Cl` [Example 68, (S)-4-(2-amino-5-(tetrahydro-2H-pyran-4-yl)pyridin-3-yl)-3-chloro-N-(2-hydroxy-1-phenylethyl)benzamide], for which the concentration for half-maximal inhibition (IC50) at ERK2 is 0.214 µM; against activated ERK2 it was 0.314 µM.

With `Nc1ncc(C2CCOCC2)cc1-c1ccc(C(=O)NCc2cnccn2)c(F)c1` [Example 75, 4-(2-amino-5-(tetrahydro-2H-pyran-4-yl)pyridin-3-yl)-2-fluoro-N-(pyrazin-2-ylmethyl)benzamide], the IC50 against ERK2 is 1.16 µM; at activated ERK2 it was 1.22 µM.

With `Cc1cnccc1-c1cnc(N)c(-c2ccc(C(=O)N[C@H](CO)c3ccccc3)c(F)c2)c1` [Example 83, (S)-4-(6-amino-3′-methyl-3,4′-bipyridin-5-yl)-2-fluoro-N-(2-hydroxy-1-phenylethyl)benzamide], the values for the IC50 against ERK2 and at activated ERK2 were 0.000574 µM and 0.000752 µM, respectively.

Regarding `C[C@@H]1CN(c2cnc(N)c(-c3ccc(C(=O)N[C@H](CO)c4ccccc4)cc3)c2)C[C@H](C)O1` [Example 97, 4-(2-amino-5-((2S,6R)-2,6-dimethylmorpholino)pyridin-3-yl)-N-((S)-2-hydroxy-1-phenylethyl)benzamide], the IC50 against ERK2 turned out to be 0.11 µM; against activated ERK2 it was 0.233 µM.

For the compound `Nc1ncc(C2CCOCC2)nc1-c1ccc(C(=O)NCc2ccccc2)c(F)c1` [Example 324, 4-(3-amino-6-(tetrahydro-2H-pyran-4-yl)pyrazin-2-yl)-N-benzyl-2-fluorobenzamide], the 50% inhibitory concentration (IC50) against ERK2 amounted to 0.00617 µM; on activated ERK2, 0.00683 µM.

In the case of `Nc1ncc(C2CCOCC2)nc1-c1ccc(C(=O)NC[C@@H](O)c2ccccc2)c(F)c1` [Example 333, (S)-4-(3-amino-6-(tetrahydro-2H-pyran-4-yl)pyrazin-2-yl)-2-fluoro-N-(2-hydroxy-2-phenylethyl) benzamide], the IC50 on ERK2 came to 0.0338 µM; at activated ERK2 it was 0.0346 µM.

As for `Cc1cccc(CNC(=O)c2ccc(-c3nc(C4CCOCC4)cnc3N)cc2F)n1` [Example 334, 4-(3-amino-6-(tetrahydro-2H-pyran-4-yl)pyrazin-2-yl)-2-fluoro-N-((6-methylpyridin-2-yl)methyl) benzamide], the results for the concentration for half-maximal inhibition (IC50) at ERK2 and at activated ERK2 were 0.0194 µM and 0.0252 µM, respectively.
